Laboratory results published in PubChem BioAssay (NCI).
Several values for one entry are separate records, joined by “and”; a condition that tells them apart may be missing. Equal values may be shown once.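 These data come from cells grown in 96-well plates and exposed to compound for 48 hours at five concentrations. Abbreviation: GI50, concentration required for 50% inhibition of growth. Definition used: TGI = concentration required for complete inhibition of growth.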

Experiments:
Experiment in all cases: growth of human tumour cells (NCI), 48 h
[1] = test system: HCT-15 colon
[2] = test system: UO-31 renal
[3] = test system: HT29 colon
[4] = test system: SNB-19 CNS
[5] = test system: SF-268 CNS
[6] = test system: NCI-H226 lung
[7] = test system: DMS 114 small cell lung
[8] = test system: LXFL 529 NSCLC
[9] = test system: LOX IMVI melanoma
[10] = test system: EKVX NSCLC
[11] = test system: RXF 393 renal
[12] = test system: U251 CNS
[13] = test system: SR leukemia
[14] = test system: DU-145 prostate
[15] = test system: NCI/ADR-RES ovarian

Row | SMILES | TGI [1] | TGI [2] | TGI [3] | TGI [4] | TGI [5] | TGI [6] | TGI [7] | TGI [8] | TGI [9] | TGI [10] | TGI [11] | TGI [12] | TGI [13] | GI50 [1] | GI50 [11] | GI50 [3] | GI50 [4] | GI50 [6] | TGI [14] | TGI [15]
1 | CC[n+]1c(/C=C/c2cc(C(=O)OC)n3c2sc2ccccc23)sc2ccccc21 | 34.9 µM | 35.1 µM | 33 µM | 44 µM | 42.2 µM | 45.1 µM | 52.9 µM | 32.9 µM | 40.5 µM | 38.9 µM | – | – | – | – | – | – | – | – | – | –
2 | O=C(O)C(Cc1ccc(O)cc1)N=Cc1nc(-c2ccccc2)oc1O (centres undefined) | > 100 µM | > 100 µM | > 100 µM | > 100 µM | > 100 µM | > 100 µM | > 100 µM | > 100 µM | > 100 µM | > 100 µM | > 100 µM | > 100 µM | – | – | – | – | – | – | – | –
3 | COc1cc2c(c(OC)c1OC)[C@@H]1CCCCC[C@@H]1CCC2=O | > 100 µM | > 100 µM | > 100 µM | > 100 µM | > 100 µM | > 100 µM | > 57.1 µM | > 100 µM | 38.9 µM | > 100 µM | > 100 µM | > 100 µM | > 59.2 µM | – | – | – | – | – | – | –
4 | COc1cc(C(C)c2cc3c(cc2OCCCCCOc2cc4c(cc2C(C)c2cc(OC)c(OC)c(OC)c2)OCO4)OCO3)cc(OC)c1OC (centres undefined) | > 100 µM | > 100 µM | > 100 µM | > 100 µM | > 100 µM | > 100 µM | – | > 100 µM | > 100 µM | > 100 µM | > 100 µM | > 100 µM | > 100 µM | – | – | – | – | – | – | –
5 | CC(=O)NC1=C(NCCO)C(=O)c2ccccc2C1=O | > 50 µM | > 50 µM | > 50 µM | > 50 µM | > 50 µM | > 50 µM | – | > 50 µM | > 50 µM | > 50 µM | > 50 µM | > 50 µM | > 50 µM | – | – | – | – | – | – | –
6 | COc1cc(CNc2ccc(C)cc2)cc(OC)c1OC | 9.02 µM and > 37.2 µM | > 100 µM | 0.852 µM | > 100 µM | > 90.3 µM | – | 0.981 µM and 3.08 µM | > 100 µM | > 100 µM | > 100 µM | – | 1.2 µM | > 100 µM | 0.1 µM and 0.275 µM | 0.239 µM | 0.156 µM | 0.959 µM | 0.284 µM and 0.72 µM | – | –
7 | Cc1nsc2cc(Cl)n(C)c(=O)c12 | > 100 µM | > 100 µM | > 100 µM | > 100 µM | > 100 µM | > 100 µM | > 100 µM | > 100 µM | > 100 µM | > 100 µM | > 100 µM | > 100 µM | > 100 µM | – | – | – | – | – | – | –
8 | Nc1ccc(C(=O)NN2C(=O)C(Cl)C2c2ccc(O)cc2)cc1 (centres undefined) | 50.1 µM | 57.9 µM | 45.1 µM | 31.4 µM | 27 µM | 57.3 µM | 25.7 µM | 31.7 µM | 22.7 µM | 36.1 µM | – | 29.6 µM | – | – | – | – | – | – | – | –
9 | O=C(CC(=O)n1nc(-c2ccccc2)c(N=Nc2ccc([N+](=O)[O-])cc2)c1-c1ccccc1)Nc1ccc(Cl)cc1 | – | 45.1 µM | 58.5 µM | 81.6 µM | > 100 µM | 70 µM | 48.8 µM | > 100 µM | > 100 µM | > 100 µM | 51.3 µM | 63.1 µM | > 100 µM | – | – | – | – | – | – | –
10 | CCCCCCCCCCCCCCCCNc1nc(=O)n(C2CC(O)C(COP(=O)(O)OC3CC(n4cc(F)c(=O)[nH]c4=O)OC3CO)O2)cc1F (centres undefined) | 50.9 µM | > 46.8 µM | 26.5 µM | 3.39 µM | > 34.2 µM | > 100 µM | – | – | 17.1 µM | 99.3 µM | 30.3 µM | 32 µM | 13.1 µM | – | – | – | – | – | > 70.6 µM | 46 µM
